Positions of bridges follow the written chain, without caps; N, C: chain ends. Non-standard residues stand in square brackets, D forms with d. Residues, ends and D or L forms follow the SMILES beside them. *: point of attachment. Ileψ(thiazoline)Cys = CC[C@H](C)[C@H](N)C1=N[C@H](C(=O)*)CS1; dOrn = NCCC[C@@H](N)C(=O)O
What was measured:
[1] = test system: Cluster 1 haloalkaliphilic bacteria; assay: Antibiotic sensitivity, distribution of positive characters; assay type: cell-based; conditions: share of strains of cluster 1 (78.5% similarity level, SSM) scored positive = clear zone around antibiotic disk; Medium A agar, 37° C., up to 14 days
Protocol: (§1) A light suspension of bacteria in alkaline, saline, nutrient broth was spread on the surface of alkaline nutrient, saline agar (Medium A) and allowed to dry. Commercially available antibiotic susceptibility test disks (Oxoid or Mast Laboratories: Merseyside, U.K.) were applied to the agar surface. The bacteria were cultivated at 37° C. for up to 14 days. Clear zones around the antibiotic disks indicated sensitivity and were recorded as positive.

[2] = test system: Cluster 2 haloalkaliphilic bacteria; assay: as above; assay type: cell-based; conditions: share of strains of cluster 2 (78.5% similarity level, SSM) scored positive = clear zone around antibiotic disk; Medium A agar, 37° C., up to 14 days
Protocol: as §1

[3] = test system: Cluster 4 haloalkaliphilic bacteria; assay: as above; assay type: cell-based, haloalkaliphilic eubacteria; conditions: share of strains of cluster 4 (78.5% similarity level, SSM) scored positive = clear zone around antibiotic disk; Medium A agar, 37° C., up to 14 days
Protocol: as §1

[4] = test system: Cluster 3 haloalkaliphilic bacteria; assay: as above; assay type: cell-based, haloalkaliphilic eubacteria; conditions: share of strains of cluster 3 (78.5% similarity level, SSM) scored positive = clear zone around antibiotic disk; Medium A agar, 37° C., up to 14 days
Protocol: as §1

[5] = test system: Strain 103Nt.4; assay: Antibiotic sensitivity (susceptibility test disks on Medium A agar); assay type: cell-based; conditions: antibiotic disks (contents in Appendix C), 37° C., up to 14 days
Protocol: as §1

[6] = test system: Strain 86M.4; assay: as above; assay type: cell-based; conditions: antibiotic disks (contents in Appendix C), 37° C., up to 14 days
Protocol: as §1

[7] = test system: Strain 93dLM.4; assay: as above; assay type: cell-based; conditions: antibiotic disks (contents in Appendix C), 37° C., up to 14 days
Protocol: as §1

[8] = test system: Strain 98Nt.4; assay: as above; assay type: cell-based; conditions: antibiotic disks (contents in Appendix C), 37° C., up to 14 days
Protocol: as §1

[9] = test system: Strain 95LM.4; assay: as above; assay type: cell-based; conditions: antibiotic disks (contents in Appendix C), 37° C., up to 14 days
Protocol: as §1

[10] = test system: Strain 31M.4; assay: as above; assay type: cell-based; conditions: antibiotic disks (contents in Appendix C), 37° C., up to 14 days
Protocol: as §1

[11] = test system: Strain 931LM.4; assay: as above; assay type: cell-based; conditions: antibiotic disks (contents in Appendix C), 37° C., up to 14 days
Protocol: as §1

Molecule	Distribution of positive characters: antibiotic sensitivity, Cluster 1 [1]	Distribution of positive characters: antibiotic sensitivity, Cluster 2 [2]	Distribution of positive characters: antibiotic sensitivity, Cluster 4 [3]	Distribution of positive characters: antibiotic sensitivity, Cluster 3 [4]	Inhibition of growth by antibiotic [5]	Inhibition of growth by antibiotic [6]	Inhibition of growth by antibiotic [7]	Inhibition of growth by antibiotic [8]	Inhibition of growth by antibiotic [9]	Inhibition of growth by antibiotic [10]	Inhibition of growth by antibiotic [11]
CC[C@H](C)[C@H](N)C1=N[C@H](C(=O)N[C@@H](CC(C)C)C(=O)N[C@H](CCC(=O)O)C(=O)N[C@H](C(=O)N[C@H]2CCCCNC(=O)[C@H](CC(N)=O)NC(=O)[C@@H](CC(=O)O)NC(=O)[C@H](Cc3cnc[nH]3)NC(=O)[C@@H](Cc3ccccc3)NC(=O)[C@H]([C@@H](C)CC)NC(=O)[C@@H](CCCN)NC2=O)[C@@H](C)CC)CS1 [bacitracin] ({Ileψ(thiazoline)Cys}-L[dE]IK[dOrn]I[dF]H[dD]N; lactam 4-C)	100	82	100	100	not inhibited	inhibited	inhibited	inhibited	inhibited	not inhibited	–
O=C(N[C@H](CO)[C@H](O)c1ccc([N+](=O)[O-])cc1)C(Cl)Cl [chloramphenicol]	0	0	100	100	not inhibited	not inhibited	–	not inhibited	inhibited	inhibited	inhibited
CC(=O)O[C@H]1C[C@@]2(C)[C@@H](C[C@@H](O)[C@H]3[C@@]4(C)CC[C@@H](O)[C@@H](C)[C@@H]4CC[C@@]32C)/C1=C(\CCC=C(C)C)C(=O)O [fusidic acid]	14	9	17	0	not inhibited	–	–	–	–	inhibited	inhibited
NC[C@H]1O[C@H](O[C@H]2[C@H](O)[C@@H](O[C@H]3O[C@H](CO)[C@@H](O)[C@H](N)[C@H]3O)[C@H](N)C[C@@H]2N)[C@H](O)[C@@H](O)[C@@H]1O [kanamycin]	0	0	17	0	–	not inhibited	not inhibited	not inhibited	not inhibited	–	–
COc1cccc(OC)c1C(=O)N[C@@H]1C(=O)N2[C@@H]1SC(C)(C)[C@@H]2C(=O)O [methicillin]	0	0	0	0	not inhibited	–	–	–	–	inhibited	inhibited
CCn1cc(C(=O)O)c(=O)c2ccc(C)nc21 [nalidixic acid]	0	18	0	0	inhibited	–	–	–	–	inhibited	inhibited
O=C1CN(/N=C/c2ccc([N+](=O)[O-])o2)C(=O)N1 [nitrofurantoin]	–	–	–	–	–	–	–	–	–	–	not inhibited
CO[C@H]1C[C@H](O[C@H]2[C@H](C)[C@@H](O[C@@H]3O[C@H](C)C[C@H](N(C)C)[C@H]3O)[C@@H](C)C[C@@]3(CO3)C(=O)[C@H](C)[C@@H](O)[C@@H](C)[C@@H](C)OC(=O)[C@@H]2C)O[C@@H](C)[C@@H]1O [oleandomycin]	0	0	100	100	not inhibited	not inhibited	inhibited	not inhibited	inhibited	inhibited	–
CC1(C)S[C@@H]2[C@H](NC(=O)Cc3ccccc3)C(=O)N2[C@H]1C(=O)O [penicillin G]	–	–	–	–	inhibited	not inhibited	inhibited	not inhibited	inhibited	inhibited	inhibited
CO[C@H]1/C=C/O[C@@]2(C)Oc3c(C)c(O)c4c(O)c(c(/C=N/N5CCN(C)CC5)c(O)c4c3C2=O)NC(=O)/C(C)=C\C=C\[C@H](C)[C@H](O)[C@@H](C)[C@@H](O)[C@@H](C)[C@H](OC(C)=O)[C@@H]1C [rifampicin]	14	64	83	67	not inhibited	not inhibited	–	–	–	not inhibited	–
Cc1cc(NS(=O)(=O)c2ccc(N)cc2)no1 [sulphamethoxazole]	–	–	–	–	inhibited	–	–	–	–	not inhibited	–
CN(C)[C@@H]1C(O)=C(C(N)=O)C(=O)[C@@]2(O)C(O)=C3C(=O)c4c(O)cccc4[C@@](C)(O)[C@H]3C[C@@H]12 [tetracycline]	14	9	17	33	–	not inhibited	not inhibited	not inhibited	not inhibited	–	–
COc1cc(Cc2cnc(N)nc2N)cc(OC)c1OC [trimethoprim]	–	–	–	–	inhibited	–	–	–	–	not inhibited	not inhibited
CN[C@H](CC(C)C)C(=O)N[C@H]1C(=O)N[C@@H](CC(N)=O)C(=O)N[C@H]2C(=O)N[C@H]3C(=O)N[C@H](C(=O)N[C@H](C(=O)O)c4cc(O)cc(O)c4-c4cc3ccc4O)[C@H](O)c3ccc(c(Cl)c3)Oc3cc2cc(c3O[C@@H]2O[C@H](CO)[C@@H](O)[C@H](O)[C@H]2O[C@H]2C[C@](C)(N)[C@H](O)[C@H](C)O2)Oc2ccc(cc2Cl)[C@H]1O [vancomycin]	0	0	83	100	not inhibited	not inhibited	inhibited	not inhibited	inhibited	–	–
Gentamycin	0	0	50	67	–	–	–	–	–	–	–
gentamicin	–	–	–	–	not inhibited	not inhibited	inhibited	not inhibited	not inhibited	inhibited	inhibited
neomycin	0	0	0	0	inhibited	not inhibited	not inhibited	not inhibited	not inhibited	–	–
polymixin	0	0	0	0	inhibited	not inhibited	not inhibited	not inhibited	not inhibited	not inhibited	–
